Assay: Evaluation of stability in liver microsome
Settings: mouse liver microsome 0.25 mg/mL, 1 μM test compound, 37° C. for 30 minutes

| Remaining (%) | Structure (SMILES) |
| --- | --- |
| 82 | COCc1ccc(NC(=O)c2c(C#Cc3cnc4[nH]ccc4c3)n(C3(C)CC3)c3ncnc(N)c23)cc1 [Example 128, 6-((1H-pyrrolo[2,3-b]pyridine-5-yl)ethynyl)-4-amino-N-(4-(methoxymethyl)phenyl)-7-(1-methylcyclopropyl)-7H-pyrrolo[2,3-d]pyrimidine-5-carboxamide] |
| 53 | COCc1ccc(NC(=O)c2c(OCC(C)(C)OC)n(C3(C)CC3)c3ncnc(N)c23)cc1 [Example 137, 4-amino-6-(2-methoxy-2-methylpropoxy)-N-(4-(methoxymethyl)phenyl)-7-(1-methylcyclopropyl)-7H-pyrrolo[2,3-d]pyrimidine-5-carboxamide] |
| 55 | CCOc1c(C(=O)Nc2ccc(-c3ccco3)cc2)c2c(N)ncnc2n1C1(C)CC1 [Example 116, 4-amino-6-ethoxy-N-(4-(furan-2-yl)phenyl)-7-(1-methylcyclopropyl)-7H-pyrrolo[2,3-d]pyrimidine-5-carboxamide] |
| 77 | COCc1ccc(NC(=O)c2c(C#CCN3CCN(C)CC3)n(C3(C)CC3)c3ncnc(N)c23)cc1 [Example 132, 4-amino-N-(4-(methoxymethyl)phenyl)-7-(1methylcyclopropyl)-6-(3-(4-methylpiperazin-1-yl)prop-1-yn-1-yl)-7H-pyrrolo[2,3-d]pyrimidine-5-carboxamide] |
| 72 | COCc1ccc(NC(=O)c2c(C#CC(C)(C)O)n(C3(C)CC3)c3ncnc(N)c23)cc1 [Example 174, 4-amino-6-(3-hydroxy-3-methylbut-1-yn-1-yl)-N-(4-(methoxymethyl)phenyl)-7-(1-methylcyclopropyl)-7H-pyrrolo[2,3-d]pyrimidine-5-carboxamide] |
| 78 | COCc1ccc(NC(=O)c2c(-c3cnn(C)c3)n(C3(C)CC3)c3ncnc(N)c23)cc1 [Example 150, 4-amino-N-(4-(methoxymethyl)phenyl)-6-(1-methyl-1H-pyrazol-4-yl)-7-(1-methylcyclopropyl)-7H-pyrrolo[2,3-d]pyrimidine-5-carboxamide] |
| 68 | COCc1ccc(NC(=O)c2c(-c3ccc(NC(C)=O)nc3)n(C3(C)CC3)c3ncnc(N)c23)cc1 [Example 147, 6-(6-acetamidopyridin-3-yl)-4-amino-N-(4-(methoxymethyl)phenyl)-7-(1-methylcyclopropyl)-7H-pyrrolo[2,3-d]pyrimidine-5-carboxamide] |
| 67 | COCc1ccc(NC(=O)c2c(-c3cncnc3)n(C3(C)CC3)c3ncnc(N)c23)cc1 [Example 194, 4-amino-N-(4-(methoxymethyl)phenyl)-7-(1-methylcyclopropyl)-6-(pyrimidin-5-yl)-7H-pyrrolo[2,3-d]pyrimidine-5-carboxamide] |
| 68 | COCc1ccc(NC(=O)c2c(C#Cc3ccc[nH]3)n(C3(C)CC3)c3ncnc(N)c23)cc1 [Example 161, 6-((1H-pyrrol-2-yl)ethynyl)-4-amino-N-(4-(methoxymethyl)phenyl)-7-(1-methylcyclopropyl)-7H-pyrrolo[2,3-d]pyrimidine-5-carboxamide] |
| 55 | COCc1ccc(NC(=O)c2c(C#CC3(O)CCCC3)n(C3(C)CC3)c3ncnc(N)c23)cc1 [Example 131, 4-amino-6-((1-hydroxycyclopentyl)ethynyl)-N-(4-(methoxymethyl)phenyl)-7-(1-methylcyclopropyl)-7H-pyrrolo[2,3-d]pyrimidine-5-carboxamide] |
| 70 | COCc1ccc(NC(=O)c2c(C#Cc3cccs3)n(C3(C)CC3)c3ncnc(N)c23)cc1 [Example 119, 4-amino-N-(4-(methoxymethyl)phenyl)-7-(1-methylcyclopropyl)-6-(thiophen-2-ylethynyl)-7H-pyrrolo[2,3-d]pyrimidine-5-carboxamide] |
| 77 | COCc1ccc(NC(=O)c2c(-c3ccc(N4CCN(C)CC4)cc3)n(C3(C)CC3)c3ncnc(N)c23)cc1 [Example 171, 4-amino-N-(4-(methoxymethyl)phenyl)-7-(1-methylcyclopropyl)-6-(4-(4-methylpiperazin-1-yl)phenyl)-7H-pyrrolo[2,3-d]pyrimidine-5-carboxamide] |

The next lines start with the compound.

| Structure (SMILES) | Remaining (%) |
| --- | --- |
| COCc1ccc(NC(=O)c2c(OCC(C)OC)n(C3(C)CC3)c3ncnc(N)c23)cc1 (stereo not shown) [Example 100, 4-amino-N-(4(methoxymethyl)phenyl)-6-(2-methoxypropoxy)-7-(1-methylcyclopropyl)-7H-pyrrolo[2,3-d]pyrimidine-5-carboxamide] | 76 |
| COCc1ccc(NC(=O)c2c(C#Cc3ccccc3OC)n(C3(C)CC3)c3ncnc(N)c23)cc1 [Example 113, 4-amino-N-(4-(methoxymethyl)phenyl)-6-((2-methoxyphenyl)ethynyl)-7-(1-methylcyclopropyl)-7H-pyrrolo[2,3-d]pyrimidine-5-carboxamide] | 79 |
| CC(C)(C)n1cc(C(=O)Nc2ccc(-c3cc[nH]n3)cc2)c2c(N)ncnc21 [Example 80, N-(4-(1H-pyrazol-3-yl)phenyl)-4-amino-7-(tert-butyl)-7H-pyrrolo[2,3-d]pyrimidine-5-carboxamide] | 50 |
| COCc1ccc(NC(=O)c2c(OC)n(C3(C)CC3)c3ncnc(N)c23)cc1 [Example 57, 4-amino-6-methoxy-N-[4-(methoxymethyl)phenyl]-7-(1-methylcyclopropyl)-7H-pyrrolo[2,3-d]pyrimidine-5-carboxamide] | 86 |
| COCc1ccc(NC(=O)c2c(C#CCN3CCCC3)n(C3(C)CC3)c3ncnc(N)c23)cc1 [Example 88, 4-amino-N-[4-(methoxymethyl)phenyl]-7-(1-methylcyclopropyl)-6-(3-(pyrrolidin-1-yl)prop-1-yn-1-yl)-7H-pyrrolo[2,3-d]pyrimidine-5-carboxamide] | 59 |
| COCc1ccc(NC(=O)c2c(C#Cc3cnc4cccnn34)n(C3(C)CC3)c3ncnc(N)c23)cc1 [Example 91, 4-amino-6-(imidazo[1,2-b]pyridazin-3-ylethynyl)-N-[4-(methoxymethyl)phenyl]-7-(1-methylcyclopropyl)-7H-pyrrolo[2,3-d]pyrimidine-5-carboxamide] | 65 |
| COCc1ccc(NC(=O)c2c(C#CCN3CCCCC3)n(C3(C)CC3)c3ncnc(N)c23)cc1 [Example 105, 4-amino-N-[4-(methoxymethyl)phenyl]-7-(1-methylcyclopropyl)-6-(3-(piperidin-1-yl)prop-1-yn-1-yl)-7H-pyrrolo[2,3-d]pyrimidine-5-carboxamide] | 52 |
| COCc1ccc(NC(=O)c2c(C#CC3CCOCC3)n(C3(C)CC3)c3ncnc(N)c23)cc1 [Example 87, 4-amino-N-[4-(methoxymethyl)phenyl]-7-(1-methylcyclopropyl)-6-((tetrahydro-2H-pyran-4-yl)ethynyl)-7H-pyrrolo[2,3-d]pyrimidine-5-carboxamide] | 63 |
| COCc1ccc(NC(=O)c2c(F)n(C3(C)CC3)c3ncnc(N)c23)cc1 [Example 69, 4-amino-6-fluoro-N-(4-(methoxymethyl)phenyl)-7-(1-methylcyclopropyl)-7H-pyrrolo[2,3-d]pyrimidine-5-carboxamide] | 69 |
| CCn1nccc1C#Cc1c(C(=O)Nc2ccc(COC)cc2)c2c(N)ncnc2n1C1(C)CC1 [Example 114, 4-amino-6-((1-ethyl-1H-pyrazol-5-yl)ethynyl)-N-(4-(methoxymethyl)phenyl)-7-(1-methylcyclopropyl)-7H-pyrrolo[2,3-d]pyrimidine-5-carboxamide] | 55 |
